Experimental data from PubChem BioAssay AID1963985 (Molecular Pharmacology Branch, DTP, NCI, 2024).
Blank lines part the entries; values can stand above or below the molecule they belong to.

System: 252836-082-R-J2-PDC tumor spheroids, viability
Experiment: Anticancer human tumor 252836-082-R-J2-PDC patient-derived head and neck squamous cell carcinoma cell line growth inhibition [PI3K]
Details: spheroids with HUVEC and MSC; for viability, T/C: stronger effect = lower value
Method in brief: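 Tumor cells grown as multi-cell spheroids with HUVEC endothelial cells and MSC fibroblast-like stroma were treated with targeted agents combined with inavolisib, alpelisib, duvelisib or copanlisib. Doses fell in half-log steps from near clinical Cmax, else from 10 microM. Viability was measured.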

[1] = curve of first compound, second compound 0.00316 µM
[2] = curve of first compound, second compound 0.01 µM
[3] = curve of first compound, second compound 0.0316 µM
[4] = curve of first compound, second compound 0.1 µM
[5] = curve of first compound, second compound 0.316 µM
[6] = curve of first compound, second compound 1 µM
[7] = second compound 0.00316 µM, first compound 0.0316 µM
[8] = second compound 0.00316 µM, first compound 0.1 µM
[9] = second compound 0.00316 µM, first compound 0.316 µM
[10] = second compound 0.00316 µM, first compound 1 µM
[11] = second compound 0.00316 µM, first compound 3.16 µM
[12] = second compound 0.00316 µM, first compound 10 µM
[13] = second compound 0.01 µM, first compound 0.0316 µM
[14] = second compound 0.01 µM, first compound 0.1 µM
[15] = second compound 0.01 µM, first compound 0.316 µM
[16] = second compound 0.01 µM, first compound 1 µM
[17] = second compound 0.01 µM, first compound 3.16 µM
[18] = second compound 0.01 µM, first compound 10 µM
[19] = second compound 0.0316 µM, first compound 0.0316 µM
[20] = second compound 0.0316 µM, first compound 0.1 µM
[21] = second compound 0.0316 µM, first compound 0.316 µM
[22] = second compound 0.0316 µM, first compound 1 µM
[23] = second compound 0.0316 µM, first compound 3.16 µM
[24] = second compound 0.0316 µM, first compound 10 µM
[25] = second compound 0.1 µM, first compound 0.0316 µM
[26] = second compound 0.1 µM, first compound 0.1 µM
[27] = second compound 0.1 µM, first compound 0.316 µM
[28] = second compound 0.1 µM, first compound 1 µM
[29] = second compound 0.1 µM, first compound 3.16 µM
[30] = second compound 0.1 µM, first compound 10 µM
[31] = second compound 0.316 µM, first compound 0.0316 µM
[32] = second compound 0.316 µM, first compound 0.1 µM
[33] = second compound 0.316 µM, first compound 0.316 µM
[34] = second compound 0.316 µM, first compound 1 µM
[35] = second compound 0.316 µM, first compound 3.16 µM
[36] = second compound 0.316 µM, first compound 10 µM
[37] = second compound 1 µM, first compound 0.0316 µM
[38] = second compound 1 µM, first compound 0.1 µM
[39] = second compound 1 µM, first compound 0.316 µM
[40] = second compound 1 µM, first compound 1 µM
[41] = second compound 1 µM, first compound 3.16 µM
[42] = second compound 1 µM, first compound 10 µM
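Note: spheroids exposed to agents for seven days before readout.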
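Throughout, for viability, T/C: percent of vehicle DMSO control viability so 100% = untreated growth.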

IC50 [1]: > 10 µM
IC50 [2]: > 10 µM
IC50 [3]: 3.8 µM
IC50 [4]: < 0.0316 µM
IC50 [5]: < 0.0316 µM
IC50 [6]: < 0.0316 µM
Compound: C#Cc1c(F)ccc2cc(O)cc(-c3ncc4c(N5CC6CCC(C5)N6)nc(OCC56CCCN5CC(F)C6)nc4c3F)c12 (stereo not given) + COc1c(OCCCN2CCOCC2)ccc2c3n(c(=NC(=O)c4cnc(N)nc4)nc12)CCN3
viability, T/C [7]: 75.2%
viability, T/C [8]: 79.9%
viability, T/C [9]: 105%
viability, T/C [10]: 76.8%
viability, T/C [11]: 72.5%
viability, T/C [12]: 67%
viability, T/C [13]: 76.5%
viability, T/C [14]: 76.8%
viability, T/C [15]: 72.2%
viability, T/C [16]: 70%
viability, T/C [17]: 60.2%
viability, T/C [18]: 53.2%
viability, T/C [19]: 53.5%
viability, T/C [20]: 62%
viability, T/C [21]: 53.7%
viability, T/C [22]: 57.2%
viability, T/C [23]: 52.7%
viability, T/C [24]: 34.9%
viability, T/C [25]: 40.4%
viability, T/C [26]: 37.9%
viability, T/C [27]: 36.5%
viability, T/C [28]: 32.8%
viability, T/C [29]: 37.6%
viability, T/C [30]: 18.4%
viability, T/C [31]: 16.9%
viability, T/C [32]: 15.7%
viability, T/C [33]: 13.2%
viability, T/C [34]: 15.3%
viability, T/C [35]: 12.9%
viability, T/C [36]: 4.25%
viability, T/C [37]: 4.39%
viability, T/C [38]: 4.93%
viability, T/C [39]: 4.55%
viability, T/C [40]: 4.71%
viability, T/C [41]: 2.91%
viability, T/C [42]: 0.25%

IC50 [1]: 5.82 µM
IC50 [2]: 5.25 µM
IC50 [3]: 3.23 µM
IC50 [4]: < 0.0316 µM
IC50 [5]: < 0.0316 µM
IC50 [6]: < 0.0316 µM
Compound: CC1(C)CCC(CN2CCN(c3ccc(C(=O)NS(=O)(=O)c4ccc(NCC5CCOCC5)c([N+](=O)[O-])c4)c(Oc4cnc5[nH]ccc5c4)c3)CC2)=C(c2ccc(Cl)cc2)C1 + COc1c(OCCCN2CCOCC2)ccc2c3n(c(=NC(=O)c4cnc(N)nc4)nc12)CCN3
viability, T/C [7]: 89.7%
viability, T/C [8]: 89.2%
viability, T/C [9]: 89.3%
viability, T/C [10]: 83.9%
viability, T/C [11]: 80.7%
viability, T/C [12]: 23%
viability, T/C [13]: 75.8%
viability, T/C [14]: 67.3%
viability, T/C [15]: 76.2%
viability, T/C [16]: 84.8%
viability, T/C [17]: 80.4%
viability, T/C [18]: 15.9%
viability, T/C [19]: 59.2%
viability, T/C [20]: 56%
viability, T/C [21]: 53.3%
viability, T/C [22]: 58.9%
viability, T/C [23]: 50.2%
viability, T/C [24]: 13.9%
viability, T/C [25]: 35.9%
viability, T/C [26]: 35.8%
viability, T/C [27]: 37%
viability, T/C [28]: 35.3%
viability, T/C [29]: 45.2%
viability, T/C [30]: 14.2%
viability, T/C [31]: 17.2%
viability, T/C [32]: 16.5%
viability, T/C [33]: 15.8%
viability, T/C [34]: 16.9%
viability, T/C [35]: 17.1%
viability, T/C [36]: 5.65%
viability, T/C [37]: 5.01%
viability, T/C [38]: 3.96%
viability, T/C [39]: 4.59%
viability, T/C [40]: 3.64%
viability, T/C [41]: 4.04%
viability, T/C [42]: 1.11%

IC50 [1]: > 10 µM
IC50 [2]: > 10 µM
IC50 [3]: > 10 µM
IC50 [4]: 3.73 µM
IC50 [5]: 0.0817 µM
IC50 [6]: < 0.0316 µM
Compound: C#Cc1c(F)ccc2cc(O)cc(-c3ncc4c(N5CC6CCC(C5)N6)nc(OCC56CCCN5CC(F)C6)nc4c3F)c12 (stereo not given) + CC(Nc1ccc2c(c1)OCCn1cc(N3C(=O)OCC3C(F)F)nc1-2)C(N)=O
viability, T/C [7]: 91.8%
viability, T/C [8]: 72.8%
viability, T/C [9]: 76.1%
viability, T/C [10]: 82.2%
viability, T/C [11]: 72%
viability, T/C [12]: 50.7%
viability, T/C [13]: 83.7%
viability, T/C [14]: 73.6%
viability, T/C [15]: 78.6%
viability, T/C [16]: 71%
viability, T/C [17]: 75.6%
viability, T/C [18]: 59.5%
viability, T/C [19]: 74.6%
viability, T/C [20]: 67.4%
viability, T/C [21]: 68.9%
viability, T/C [22]: 58.8%
viability, T/C [23]: 56%
viability, T/C [24]: 56.1%
viability, T/C [25]: 62.9%
viability, T/C [26]: 56.3%
viability, T/C [27]: 61.9%
viability, T/C [28]: 61.1%
viability, T/C [29]: 49.3%
viability, T/C [30]: 38.9%
viability, T/C [31]: 56%
viability, T/C [32]: 45.9%
viability, T/C [33]: 46.7%
viability, T/C [34]: 38%
viability, T/C [35]: 39.4%
viability, T/C [36]: 32.6%
viability, T/C [37]: 46.1%
viability, T/C [38]: 38.7%
viability, T/C [39]: 45.1%
viability, T/C [40]: 36.6%
viability, T/C [41]: 33.2%
viability, T/C [42]: 26.6%

IC50 (curve of compound): > 10 µM
Compound: CC(Cn1ccc(-c2ccc(C#N)c(Cl)c2)n1)NC(=O)c1cc(C(C)O)[nH]n1 (stereo not given)
viability, T/C (compound 0.0316 µM): 93.6% [middle of 4 runs]
viability, T/C (compound 0.1 µM): 88.4% [middle of 4 runs]
viability, T/C (compound 0.316 µM): 98.8% [middle of 4 runs]
viability, T/C (compound 1 µM): 97.2% [middle of 4 runs]
viability, T/C (compound 3.16 µM): 92.5% [middle of 4 runs]
viability, T/C (compound 10 µM): 91.9% [middle of 4 runs]

IC50 [1]: > 10 µM
IC50 [2]: > 10 µM
IC50 [3]: > 10 µM
IC50 [4]: < 0.0316 µM
IC50 [5]: < 0.0316 µM
IC50 [6]: < 0.0316 µM
Compound: CNC(=O)c1ccc(N2C(=S)N(c3ccc(C#N)c(C(F)(F)F)c3)C(=O)C2(C)C)cc1F + COc1c(OCCCN2CCOCC2)ccc2c3n(c(=NC(=O)c4cnc(N)nc4)nc12)CCN3
viability, T/C [7]: 97.9%
viability, T/C [8]: 85.8%
viability, T/C [9]: 87.3%
viability, T/C [10]: 96.5%
viability, T/C [11]: 96.2%
viability, T/C [12]: 77.7%
viability, T/C [13]: 73%
viability, T/C [14]: 64.5%
viability, T/C [15]: 79.5%
viability, T/C [16]: 71.9%
viability, T/C [17]: 76.1%
viability, T/C [18]: 80%
viability, T/C [19]: 60.7%
viability, T/C [20]: 60.1%
viability, T/C [21]: 49.9%
viability, T/C [22]: 60.9%
viability, T/C [23]: 62.8%
viability, T/C [24]: 54.3%
viability, T/C [25]: 36%
viability, T/C [26]: 38%
viability, T/C [27]: 36%
viability, T/C [28]: 36.3%
viability, T/C [29]: 33.5%
viability, T/C [30]: 34.5%
viability, T/C [31]: 19%
viability, T/C [32]: 17.2%
viability, T/C [33]: 17.1%
viability, T/C [34]: 17.3%
viability, T/C [35]: 17.4%
viability, T/C [36]: 13.4%
viability, T/C [37]: 4.5%
viability, T/C [38]: 3.94%
viability, T/C [39]: 5.87%
viability, T/C [40]: 4.83%
viability, T/C [41]: 4.62%
viability, T/C [42]: 4.12%
